Experimental data published in patent publication US5625083A, “Dinitroglycerol esters of unsaturated fatty acids and prostaglandins” (priority 1995, dated 1997).
Read-outs that look alike come from different tables or passages of the source.

What was measured:
[1] = system: human platelets; assay: ADP-induced aggregation of human platelets; assay type: cell-based; conditions: for inhibition of ADP induced human platelet aggregation: moderate antiaggregating activity
Experimental: 1,3Dinitroglycerol ester of prostaglandin D2 inhibited aggregation of human platelets induced by ADP ([…]) in dose 0.1 mg/ml of plasma on 50%.

[2] = system: RAT COLON; assay: Rat colon contraction; assay type: cell-based; conditions: for EC50: Rattus norvegicus
[3] = system: RAT STOMACH; assay: Rat stomach contraction; assay type: cell-based; conditions: for EC50: Rattus norvegicus
[4] = system: RAT UTERUS; assay: Rat uterus contraction; assay type: cell-based; conditions: for EC50: Rattus norvegicus
[5] = system: isolated rat aorta; assay: Isolated rat aorta relaxation / contraction; assay type: cell-based; conditions: for EC50: Rattus norvegicus; for effect on isolated rat aorta: result in words
[6] = system: GUINEA PIG TRACHEA; assay: Isolated guinea pig trachea relaxation / contraction; assay type: cell-based; conditions: for EC50: Cavia porcellus
[7] = system: isolated rat aorta; assay: Stability of ethanolic solution of NITROPROSTON (relaxation of isolated rat aorta contracted with adrenaline after storage); assay type: cell-based; conditions: read-out: Relaxation of isolated rat aorta contracted with adrenaline, ED5O
From the text: Stability of ethanolic solution of NITROPROSTON.
Relaxation of isolated rat aorta
months contracted with adrenaline, ED5O, M*10^-6

[8] = system: rat and rabbit tissues; assay: Hypertensive activity in experiments with rat and rabbit tissues; conditions: relative to parent PGE2
[9] = system: mice; assay: Mice survival under toxic concentration of CO; assay type: in vivo
From the text: (§1) NITROPROSTON protected laboratory animals from a variety of noxious factors. It increased the survival of mice in an atmosphere with elevated CO or NO2 concentration: survival in the experimental group was 1.5-4 times higher than in the control group.
(§2) INFLUENCE OF NITROPROSTON ON MICE SURVIVAL
(§3) TOXIC CONCENTRATION OF CO OR NO2

[10] = system: mice; assay: Mice survival under toxic concentration of NO2; assay type: in vivo; conditions: NO2 (700 mg/m^3); 1 mg/kg; control 17
From the text: as §1, §2, §3

[11] = system: rats with experimental hypercholesterolaemia; assay: Lipid spectrum of serum of rats with experimental hypercholesterolaemia; assay type: in vivo, rat; conditions: 15 μg/kg intraperitoneally, 6 times per week, one month
Experimental: Lipids and lipid fractions in sera of rats with experimental hypercholesterolaemea were determined after one month of animal development with indicated drugs in a dose 15 μg/kg body weight intraperitoneally. 6 times per week. Rats not developed by drugs served as a control group.

[12] = system: mice; assay: Toxicity in mice; assay type: in vivo
[13] = system: volunteers and patients with bronchus obstruction; assay: Bronchodilation in volunteers and patients with bronchus obstruction; assay type: in vivo, human; conditions: given as a spray (5-7×10^-3 mg per dose)
From the text: This raises the possibility of using NITROPROSTON to treat bronchospasms.

[14] = system: rats with experimental hypercholesterolaemia; assay: Peroxidation of serum or tissue lipids (MDA) of rats with experimental hypercholesterolaemia; assay type: in vivo, rat; conditions: 15 μg/kg intraperitoneally, 6 times per week, one month
Experimental: MDA contents as a parameter of lipid peroxidation were estimated after one month of animal development with indicated drugs in a dose 15 μg/kg body weight intraperitoneally, 6 times per week. Rats not developed by drugs served as a control.

[15] = system: heart rate; assay: Heart rate and tachyphylaxis in experimental animals; assay type: in vivo
[16] = system: mice; assay: Mice survival under conditions of hypobaric hypoxia; assay type: in vivo; conditions: Hypobary (9000 m); 1 mg/kg; control 18.5
From the text: as §2
UNDER CONDITIONS OF HYPOBARIC HYPOXIA AND

[17] = system: human platelets; conditions: parent compound, no own test described; cited from earlier work
[18] = compared with prostaglandin F2α
[19] = contraction, read-out: stimulating rat uterine contractions, EC50
[20] = read-out: RAT UTERUS, contraction, EC50
[21] = read-out: ISOLATED RAT AORTA relaxation, EC50
[22] = read-out: GUINEA PIG TRACHEA relaxation, EC50
[23] = relaxation, read-out: vasodilating effect on the isolated rat aorta, EC50

SMILES: CC/C=C\C/C=C\C/C=C\CCCCCCCC(=O)OC(CO[N+](=O)[O-])CO[N+](=O)[O-] [1,3-dinitroglycerol ester of 9,12,15-octadecatrienoic acid]
- inhibition of ADP induced human platelet aggregation [1]: 30-50%

SMILES: CCCCC/C=C\C/C=C\C/C=C\C/C=C\CCCC(=O)OC(CO[N+](=O)[O-])CO[N+](=O)[O-] [1,3-dinitroglycerol ester of arachidonic acid]
- inhibition of aggregation of human platelets induced by ADP ([1]; ADP (1×10^-5), dose 0.1 mg/ml of plasma): almost completely inhibited

SMILES: CC/C=C\C/C=C\C/C=C\C/C=C\C/C=C\C/C=C\CCC(=O)OC(CO[N+](=O)[O-])CO[N+](=O)[O-] [1,3-dinitroglycerol ester of docosahexaenoic acid]
- inhibition of ADP induced human platelet aggregation [1]: 30-50%

SMILES: CCCCC[C@H](O)/C=C/[C@H]1C(=O)C[C@H](O)[C@@H]1C/C=C\CCCC(=O)OC(CO[N+](=O)[O-])CO[N+](=O)[O-] [1,3-dinitroglycerol ester of prostaglandin D2]
- inhibition at 100 µg/mL ([1]; Homo sapiens, Platelet, ADP (1×10M), dose 0.1 mg/ml of plasma): 50%

SMILES: CCCCC[C@H](O)/C=C/[C@@H]1[C@@H](C/C=C\CCCC(=O)OC(CO[N+](=O)[O-])CO[N+](=O)[O-])[C@@H](O)C[C@H]1O [NITROPROST-F, 1,3-dinitroglycerol ester of prostaglandin F2α]
- EC50 [2]: 175 ± 70 nM
- effectiveness on rat colon [2, 18]: as effective as prostaglandin F2α
- EC50 [3]: 130 ± 10 nM
- activity in rat stomach contraction [3, 18]: lower activity
- EC50 [4, 19]: 9 nM
- EC50 [4, 20]: 9 ± 1.7 nM
- effectiveness in stimulating rat uterine contractions, times more than prostaglandin F2α ([4]; relative to prostaglandin F2α): more than 10 times
- EC50 [5, 21]: 540 ± 190 nM
- EC50 [6, 22]: 10000 ± 1500 nM

SMILES: CCCCC[C@H](O)/C=C/[C@H]1[C@H](O)CC(=O)[C@@H]1C/C=C\CCCC(=O)OC(CO[N+](=O)[O-])CO[N+](=O)[O-] [NITROPROSTON, 1,3-dinitroglycerol ester of prostaglandin E2]
- EC50 ([7]; time of storage 1 month): 1540 ± 210 nM
- EC50 ([7]; time of storage 12 months): 1770 ± 148 nM
- hypertensive activity, times higher than that of the parent PGE2 [8]: 5 times
- Survival, % ([9]; CO (11 g/m^3), 1 mg/kg, control 41): 66%
- survival in the experimental group, times higher than in the control group ([9]; mice, atmosphere with elevated CO or NO2 concentration): 1.5-4 times
- EC50 [3]: 60 ± 10 nM
- EC50 [4, 20]: 400 ± 100 nM
- Survival, % [10]: 65%
- HDL cholesterol (HDLC), changes of the contents (%, relative to control) [11]: 123%
- HDLC/TSC, changes (%, relative to control) [11]: 128%
- LDL cholesterol, changes of the contents (%, relative to control) [11]: 57%
- Total lipids, changes of the contents (%, relative to control) [11]: 67%
- Total serum cholesterol (TSC), changes of the contents (%, relative to control) [11]: 95%
- Triglicerides, changes of the contents (%, relative to control) [11]: 95%
- LD50 [12]: > 100 mg
- bronchodilation in volunteers and patients with bronchus obstruction [13]: potent, effective bronchodilator
- MDA level (%, relative to control), Aorta [14]: 44%
- MDA level (%, relative to control), Liver [14]: 77%
- MDA level (%, relative to control), Serum [14]: 85%
- EC50 [5, 21]: 680 ± 120 nM
- EC50 [5, 23]: 680 nM
- effect on heart rate [15]: did not affect the heart rate
- tachyphylaxis [15]: no tachyphylaxis was observed
- Survival, % [16]: 82%
- EC50 [6, 22]: 7 nM
- EC50 ([6]; relaxation, read-out: bronchodilating activity, EC50 in isolated guinea pig trachea): 7.18 nM

SMILES: CCCCC[C@H](O)/C=C/[C@H]1[C@H](O)CC(=NO)[C@@H]1CCCCCCC(=O)OC(CO[N+](=O)[O-])CO[N+](=O)[O-] [NITROPROX, 1,3-dinitroglycerol ester of 9-oxyiminoprostaglandin E1]
- HDL cholesterol (HDLC), changes of the contents (%, relative to control) [11]: 114%
- HDLC/TSC, changes (%, relative to control) [11]: 138%
- LDL cholesterol, changes of the contents (%, relative to control) [11]: 76%
- Total lipids, changes of the contents (%, relative to control) [11]: 92%
- Total serum cholesterol (TSC), changes of the contents (%, relative to control) [11]: 96%
- Triglicerides, changes of the contents (%, relative to control) [11]: 79%
- IC50 ([1]; Homo sapiens, Platelet, read-out: antiaggregating properties, IC50, ADP-induced aggregation of human platelets): 1100 nM
- MDA level (%, relative to control), Aorta [14]: 32%
- MDA level (%, relative to control), Liver [14]: 104%
- MDA level (%, relative to control), Serum [14]: 101%
- EC50 [5, 23]: 640 nM

SMILES: CCCCC[C@H](O)/C=C/[C@H]1[C@H](O)CC(=O)[C@@H]1C/C=C\CCCC(=O)O [PGE2, prostaglandin E2, reference compound]
- EC50 [3]: 40 ± 15 nM
- EC50 [4, 20]: 80 ± 16 nM
- EC50 ([5]; read-out: ISOLATED RAT AORTA contraction, EC50): 84000 ± 1000 nM
- effect on isolated rat aorta [5]: induced muscle contraction
- EC50 [6, 22]: 140 ± 80 nM

SMILES: CCCCC[C@H](O)/C=C/[C@@H]1[C@@H](C/C=C\CCCC(=O)O)[C@@H](O)C[C@H]1O [PGF2α, prostaglandin F2α, reference compound]
- EC50 [2]: 130 ± 71 nM
- EC50 [3]: 50 ± 15 nM
- EC50 [4, 19]: 110 nM
- EC50 [4, 20]: 110 ± 40 nM
- effect on isolated rat aorta [5]: contraction
- effect on isolated guinea pig trachea ([6]; result in words): contraction

SMILES: CCCCC[C@H](O)/C=C/[C@H]1[C@H](O)CC(=O)[C@@H]1CCCCCCC(=O)OC(CO[N+](=O)[O-])CO[N+](=O)[O-] [PROSTANIT, 1,3-dinitroglycerol ester of prostaglandin E1]
- HDL cholesterol (HDLC), changes of the contents (%, relative to control) [11]: 76%
- HDLC/TSC, changes (%, relative to control) [11]: 122%
- LDL cholesterol, changes of the contents (%, relative to control) [11]: 70%
- Total lipids, changes of the contents (%, relative to control) [11]: 72%
- Total serum cholesterol (TSC), changes of the contents (%, relative to control) [11]: 78%
- Triglicerides, changes of the contents (%, relative to control) [11]: 72%
- IC50 ([1]; Homo sapiens, Platelet, read-out: inhibition of ADP-induced aggregation of human platelets, IC50): 190 nM
- EC50 ([5]; relaxation, read-out: relaxing effect on the isolated rat aorta, EC50): 2100 nM

SMILES: CCCCC/C=C\C/C=C\C/C=C\C/C=C\CCCC(=O)O [arachidonic acid]
- effect on platelet aggregation (parent acid) [17]: powerful inducer of platelet aggregation

SMILES: CCC=CCC=CCC=CCC=CC=CC(O)CCCC(=O)OCC(CO[N+](=O)[O-])O[N+](=O)[O-] (centres unmarked) [dinitroglycerol ester of 5-hydroxyeicosapentaenoic acid]
- inhibition of ADP induced human platelet aggregation [1]: 30-50%
